# Data as given in patent publication US20260000657A1, “ANTI-ANGIOGENIC THERAPY AS TREATMENT FOR BENIGN UTERINE DISORDERS” (STICHTING AMSTERDAM UMC, priority 2022, published 2026).
# What was measured:
# [1] = test system: tamoxifen-induced adenomyosis in CD-1 mice; experiment: Oral axitinib treatment in tamoxifen-induced adenomyosis mouse model; type: in vivo
# Method: After validation of the model, this model was used to test treatment with anti-vascular endothelial growth factor receptor 2 (VEGFR-2) tyrosine kinase inhibitor axitinib (A-1107; LC Laboratories). To induce adenomyosis, 108 mice received neonatal tamoxifen treatment and were randomly allocated to receive treatment or placebo. On day 42, anti-angiogenesis treatment commenced by oral axitinib treatment or placebo. Axitinib was dissolved in 0.5% sodium carboxymethylcellulose (CMC) at a dose of 25 mg/kg body weight (dose I) or at a dose of 3 mg/kg (dose II). All animals received treatment by daily oral gavage at 5 μl/g bodyweight with axitinib (dose I/II) or placebo (CMC) for a time period of three weeks. During this period, all animals had daily animal welfare observations, and were weighed at a minimum of three times per week. The experimental groups are depicted in FIG. 1.
# The uteri were cut in half, one horn (right/left horn randomized) was fixed in 4% formaldehyde at room temperature for 48 hours.
# Uterine tissue was embedded in paraffin and sliced into transverse oriented sections of 5 μm, with three sections of one uterine horn on one microscope slide. […] Paraffin-embedded sections were dewaxed in xylene, rehydrated in 100%, 96%, and 70% ethanol, and washed in PBS (pH 7.4). […] After washing in PBS, aspecific binding was blocked by 3% BSA/PBS for one hour. After adding primary antibodies diluted in 0.5% BSA/PBS, sections were incubated overnight at 4° C. […] After washing with PBS, horseradish peroxidase (HRP)—streptavidin (strep) was added (cat. no. ab6734; 1:200; Dako Cytomation) diluted in 0.5% BSA/PBS, for thirty minutes. The sections were then washed in PBS, afterwards 3,3′-Diaminobenzidine (DAB) was added (60 μl DAB; 1 μl 30% H2O2; 1 mL PBS), for eight minutes.
# [2] = test system: tamoxifen-induced adenomyosis in a murine model; experiment: Adenomyosis severity index (grade x affected surface area) in tamoxifen-induced adenomyosis murine model; type: in vivo, mice; details: dose II 3 mg/kg, post hoc p<0.05
# Source text: The adenomyosis severity index in tamoxifen-induced adenomyosis in a murine model has been determined based on the abovementioned results of grade of adenomyosis and adenomyosis-affected surface area. Specifically, the grade of adenomyosis (determined on H&E slides as described above) was multiplied by the adenomyosis-affected surface area (determined on vimentin-stained slides). The adenomyosis severity index is the average of all sections analyzed per uterine horn. The adenomyosis severity index was determined for placebo group (CMC-treated mice) and two axitinib-treated groups (dose II—AX3: axitinib 3 mg/kg; dose I—AX25: axitinib 25 mg/kg).
# [3] = test system: angiogenesis-related genes (VEGF-R1, VEGF-R2, VEGF-R3, VEGF-A, VEGF-B, CD31) in mouse uteri; experiment: Real-time quantitative PCR uterine gene expression profile after axitinib; type: in vivo, mice; details: RT-PCR
# Method: To study the efficacy of axitinib treatment at the molecular level, the expression levels of vascular marker CD31 and angiogenic growth factors VEGF-A, VEGF-B, VEGF receptor R1 (VEGF-R1), VEGF-R2, VEGF-R3, placental growth factor PlGF, and collagen were measured. Real-time quantitative PCR was performed in a random selection of uterine specimens exposed to axitinib (dose II, n=7; dose I, n=6) or placebo (CMC, n=7). The expression of each gene was normalized to the household gene cyclophilin A.
# [4] = test system: tamoxifen-induced mice model; details: from week 16 of age; cited from earlier work
# CD-1 mice = experiment: Validation of tamoxifen-induced mouse adenomyosis model
# [5] = test system: uterine adenomyosis in SHN mice; details: cited from earlier work
# [6] = test system: uterus of mice with tamoxifen-induced adenomyosis
# Source text: Sunitinib is another angiogenesis inhibitor and a highly-fluorescent molecule, therefore it will be used as a model drug to microscopically assess uptake and distribution in uterine tissue after termination.
# Intra-uterine delivery of a gel containing slow-release Sunitinib in low dose will also be tested as an alternative treatment for oral Axinitib in mice with tamoxifen-induced adenomyosis.
# [7] = test system: human adenomyosis lesions xenografted in mice; details: administered 14 days after xenografting; cited from earlier work
# [8] = dose I 25 mg/kg daily oral gavage three weeks
# [9] = dose I 25 mg/kg daily oral gavage three weeks, N = 34
# [10] = dose II 3 mg/kg daily oral gavage three weeks
# [11] = dose II 3 mg/kg daily oral gavage three weeks, N = 34
# [12] = tamoxifen 1 mg/kg oral day 2-5 after birth, six weeks, n = 6
# [13] = tamoxifen 1 mg/kg, six weeks, n = 6
compound,measurement,setting,value
"CNC(=O)c1ccccc1Sc1ccc2c(/C=C/c3ccccn3)n[nH]c2c1 [Axitinib, axitinib]",No signs of adenomyosis (% of mice),[1]; [8],"11,8%"
same,Presented with adenomyosis (% of mice),[1]; [8],"88,2%"
same,Adenomyosis No (number of mice),[1]; [9],4
same,Adenomyosis Yes (number of mice),[1]; [9],30
same,"Weight end treatment, Mean",[1]; [9],29.9 g
same,"Ectopic glands, median","[1]; dose I 25 mg/kg, N = 34",3.0
same,Grade 0 (% of mice),"[1]; dose I 25 mg/kg, N = 34",(14.7%)
same,Grade 0 (number of mice),"[1]; dose I 25 mg/kg, N = 34",5
same,Grade 1 (% of mice),"[1]; dose I 25 mg/kg, N = 34",(29.4%)
same,Grade 1 (number of mice),"[1]; dose I 25 mg/kg, N = 34",10
same,Grade 2 (% of mice),"[1]; dose I 25 mg/kg, N = 34",(50.0%)
same,Grade 2 (number of mice),"[1]; dose I 25 mg/kg, N = 34",17
same,Grade 3 (% of mice),"[1]; dose I 25 mg/kg, N = 34",(5.9%)
same,Grade 3 (number of mice),"[1]; dose I 25 mg/kg, N = 34",2
same,"Ratio thickest myometrium/transverse uterine diameter, median","[1]; dose I 25 mg/kg, N = 34",0.18
same,"Ratio thickest myometrium/uterine wall, median","[1]; dose I 25 mg/kg, N = 34",0.49
same,"Ratio thinnest myometrium/uterine wall, median","[1]; dose I 25 mg/kg, N = 34",0.21
same,"Ratio thinnest/thickest myometrium, median","[1]; dose I 25 mg/kg, N = 34",0.26
same,Spread Diffuse (number of mice),"[1]; dose I 25 mg/kg, N = 34",18
same,Spread Focal (number of mice),"[1]; dose I 25 mg/kg, N = 34",8
same,Spread None (% of mice),"[1]; dose I 25 mg/kg, N = 34",(14.7%)
same,Spread None (number of mice),"[1]; dose I 25 mg/kg, N = 34",5
same,Adenomyosis No (% of mice),"[1]; dose I + II pooled, N = 68",(14.9%)
same,Adenomyosis No (number of mice),"[1]; dose I + II pooled, N = 68",10
same,Adenomyosis Yes (% of mice),"[1]; dose I + II pooled, N = 68",(85.1%)
same,Adenomyosis Yes (number of mice),"[1]; dose I + II pooled, N = 68",57
same,"Ectopic areas, Median","[1]; dose I + II pooled, N = 68",1.3
same,"Ectopic glands, median","[1]; dose I + II pooled, N = 68",2.8
same,Grade 0/1 (% of mice),"[1]; dose I + II pooled, N = 68",(40.3%)
same,Grade 0/1 (number of mice),"[1]; dose I + II pooled, N = 68",27
same,Grade 2/3 (% of mice),"[1]; dose I + II pooled, N = 68",(59.7%)
same,Grade 2/3 (number of mice),"[1]; dose I + II pooled, N = 68",40
same,Spread Diffuse (% of mice),"[1]; dose I + II pooled, N = 68",(54.0%)
same,Spread Diffuse (number of mice),"[1]; dose I + II pooled, N = 68",34
same,Spread Focal (% of mice),"[1]; dose I + II pooled, N = 68",(30.2%)
same,Spread Focal (number of mice),"[1]; dose I + II pooled, N = 68",19
same,Spread None (% of mice),"[1]; dose I + II pooled, N = 68",(15.9%)
same,Spread None (number of mice),"[1]; dose I + II pooled, N = 68",10
same,"Weight end treatment, Mean","[1]; dose I + II pooled, N = 68",28.7 g
same,No signs of adenomyosis (% of mice),[1]; [10],"14,7%"
same,Presented with adenomyosis (% of mice),[1]; [10],"82,4%"
same,Adenomyosis No (number of mice),[1]; [11],5
same,Adenomyosis Yes (number of mice),[1]; [11],28
same,"Weight end treatment, Mean",[1]; [11],28.4 g
same,"Ectopic glands, median","[1]; dose II 3 mg/kg, N = 34",2.7
same,Grade 0 (% of mice),"[1]; dose II 3 mg/kg, N = 34",(15.2%)
same,Grade 0 (number of mice),"[1]; dose II 3 mg/kg, N = 34",5
same,Grade 1 (% of mice),"[1]; dose II 3 mg/kg, N = 34",(21.2%)
same,Grade 1 (number of mice),"[1]; dose II 3 mg/kg, N = 34",7
same,Grade 2 (% of mice),"[1]; dose II 3 mg/kg, N = 34",(57.6%)
same,Grade 2 (number of mice),"[1]; dose II 3 mg/kg, N = 34",19
same,Grade 3 (% of mice),"[1]; dose II 3 mg/kg, N = 34",(6.1%)
same,Grade 3 (number of mice),"[1]; dose II 3 mg/kg, N = 34",2
same,"Ratio thickest myometrium/transverse uterine diameter, median","[1]; dose II 3 mg/kg, N = 34",0.18
same,"Ratio thickest myometrium/uterine wall, median","[1]; dose II 3 mg/kg, N = 34",0.54
same,"Ratio thinnest myometrium/uterine wall, median","[1]; dose II 3 mg/kg, N = 34",0.19
same,"Ratio thinnest/thickest myometrium, median","[1]; dose II 3 mg/kg, N = 34",0.23
same,Spread Diffuse (number of mice),"[1]; dose II 3 mg/kg, N = 34",16.4
same,Spread Focal (number of mice),"[1]; dose II 3 mg/kg, N = 34",11
same,Spread None (% of mice),"[1]; dose II 3 mg/kg, N = 34",(15.2%)
same,Spread None (number of mice),"[1]; dose II 3 mg/kg, N = 34",5
same,"Odds ratio, incidence of grade 0/1 vs grade 2/3 adenomyosis, axitinib vs CMC-only","[1]; pooled dose I + II vs placebo, p=0,048",1.33
same,Reduction of adenomyosis severity index compared to placebo-treated mice,[2],48%
same,"Down-regulation of all VEGF receptors (1-3), as well as VEGF-A and VEGF","[3]; dose I axitinib, p<0.05",more than 60%
same,Decrease of expression of endothelial cell marker CD31,"[3]; dose I axitinib, p=0.06",85%
same,Down-regulation of VEGF-R1 expression,"[3]; dose II axitinib, p=0.003",63%
same,Decrease of expression of endothelial cell marker CD31,"[3]; dose II axitinib, p=0.04",85%
O=C(O)/C=C/c1ccc(Cn2ccnc2)cc1 [Ozagrel],Myometrial infiltration,[4],suppressed myometrial infiltration
"CC/C(=C(\c1ccccc1)c1ccc(OCCN(C)C)cc1)c1ccccc1 [Tamoxifen, tamoxifen]",Fibrosis surrounding the adenomyosis affected areas,"CD-1 mice; H&E and PTAH staining, tamoxifen-treated group",No signs of fibrosis
same,"Weight, Median","CD-1 mice; tamoxifen 1 mg/kg oral day 2-5 after birth, sacrificed after six weeks, n = 6",25.2
same,Adenomyosis No (% of mice),CD-1 mice; [12],(0%)
same,Adenomyosis No (number of mice),CD-1 mice; [12],0
same,Adenomyosis Yes (% of mice),CD-1 mice; [12],(100%)
same,Adenomyosis Yes (number of mice),CD-1 mice; [12],6
same,Adenomyosis Yes (% of mice),"CD-1 mice; tamoxifen 1 mg/kg oral day 2-5 after birth, six weeks, n = 6, listed as tamoxifen",100%
same,"Ectopic glands, median",CD-1 mice; [13],7.5
same,Grade 0 (% of mice),CD-1 mice; [13],(0%)
same,Grade 0 (number of mice),CD-1 mice; [13],0
same,Grade 1 (% of mice),CD-1 mice; [13],(0%)
same,Grade 1 (number of mice),CD-1 mice; [13],0
same,Grade 2 (% of mice),CD-1 mice; [13],(100%)
same,Grade 2 (number of mice),CD-1 mice; [13],6
same,Grade 3 (% of mice),CD-1 mice; [13],(0%)
same,Grade 3 (number of mice),CD-1 mice; [13],0
same,Grade of adenomyosis developed by all mice,CD-1 mice; [13],grade 2
same,"Microvessel density, median, Ectopic endometrium",CD-1 mice; [13],4.8
same,"Microvessel density, median, Endometrium",CD-1 mice; [13],5.9
same,"Microvessel density, median, Myometrium",CD-1 mice; [13],3.0
same,Ratio thickest myometrium/thickest uterine wall (α-SMA),CD-1 mice; [13],0.43
same,Ratio thinnest myometrium/thickest myometrium (α-SMA),CD-1 mice; [13],0.19
same,Ratio thinnest myometrium/thinnest uterine wall (α-SMA),CD-1 mice; [13],0.18
same,Spread Diffuse (% of mice),CD-1 mice; [13],(66.7%)
same,Spread Diffuse (number of mice),CD-1 mice; [13],4
same,Spread Focal (% of mice),CD-1 mice; [13],(33.3%)
same,Spread Focal (number of mice),CD-1 mice; [13],2
CO[C@@H]1[C@H](OC(=O)NC(=O)CCl)CC[C@]2(CO2)[C@H]1[C@@]1(C)O[C@@H]1CC=C(C)C [TNP-470],Development of signs of uterine adenomyosis,[5]; treatment from one day after pituitary grafting until week 13,did not develop signs of uterine adenomyosis
same,"Mean surface area of blood vessels in the endometrium, relative to control group",[5]; treatment until week 13,60.5%
CCN(CC)CCNC(=O)c1c(C)[nH]c(/C=C2\C(=O)Nc3ccc(F)cc32)c1C [Sunitinib],Uptake in uterine tissue after intra-uterine injection,"[6]; 1% and 0.1% of systemic dose, 4 h and 24 h after injection",uptake throughout the myometrium
same,Toxic effects when delivered locally,"[6]; mouse, in vivo",without any toxic effects
bevacizumab,MVD and the expression of VEGF,[7],decreased
